# Reference: US12421212B2, “Substituted benzenecarboxamides as IL-17A modulators” (DiCE Alpha, Inc., priority 2019, dated 2025)
# Target: T1, IL-17A/A (Homo sapiens, UniProt Q16552)
# T1 construct: purchased Genscript Z03228
# T1 sequence (Q16552 24-155): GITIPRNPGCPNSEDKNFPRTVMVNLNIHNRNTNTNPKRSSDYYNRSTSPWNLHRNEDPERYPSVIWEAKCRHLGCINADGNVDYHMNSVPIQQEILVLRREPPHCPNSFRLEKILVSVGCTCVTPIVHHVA
# Experiment: IL-17A/A HEK-Blue Cell Assay
# Assay type: cell-based
# Conditions: HEK-Blue IL-17A reporter cell line, SEAP readout at A630, 20 hours incubation with IL-17A/A; top concentration 10 uM, 1 uM or 0.3 uM
# Experimental: The HEK-Blue IL-17A reporter cell line (Fisher #NC1408637) was used for cell-based IL-17A/A inhibition assays. Cells were grown and prepared for assays according to the manufacturer's instructions. This cell line consists of HEK 293 cells that were designed to expressed IL-17RA, IL-17RC, and the ActI adapter molecule, the combination of which, when stimulated by IL-17A/A activates a NFκB promoter and drives expression of a recombinant Secreted Alkaline Phosphatase (SEAP) geneprotein. Media from the cells is then added to a development reagent (Quanti-Blue Substrate, Fisher #NC9711613), and read at A630.
# Compounds were titrated in DMSO, with a top final compound concentration of 10 uM, 1 uM, or 0.3 uM, and added to the cells immediately before adding IL-17A/A (Genscript #Z03228). The cells, compound, and IL-17A/A were then incubated for 20 hours before media was removed for SEAP analysis. The resulting inhibition curve was then analyzed using Graphpad Prism 7.0, and IC50 values were determined using a 4-parameter nonlinear fit. DMSO was added to a universal final concentration of 0.1% to optimize background.
row,SMILES,IL-17A/A inhibition (pIC50)
1,CCC(=O)N[C@@H](C(=O)N1CCN(C)CC1)[C@@H](C)c1ccc(NC(=O)[C@@H](NC(=O)C(F)(F)C2CC2)C2CCCCC2)c(F)c1 [Compound 242],X2b (compounds were evaluated up to 1 uM and inhibited activity at 1 uM by less than 20%)

# Same assay, conditions: HEK-Blue IL-17A reporter cell line, SEAP readout at A630, 20 hours incubation with IL-17A/A; top concentration 10 uM, 1 uM or 0.3 uM; read-out: IL-17A/A inhibition (pIC50) (converted)
row,SMILES,IC50 [nM]
1,CCC(=O)N[C@@H](C(=O)N1CCN(C)CC1)[C@@H](C)c1ccc(NC(=O)[C@@H](NC(=O)C(F)(F)c2ccc(OC)nc2)C2CCCCC2)cc1 [Compound 221],10 to 100
2,CCC(=O)N[C@@H](C(=O)N1CCN(C)CC1)[C@@H](C)c1ccc(NC(=O)[C@@H](NC(=O)C(F)(F)c2ccc(OC)nc2)C2CCCCCC2)cc1 [Compound 222],10 to 100
3,COc1ccc(C(F)(F)C(=O)N[C@H](C(=O)Nc2ccc([C@H](C)[C@@H](NC(=O)c3cnns3)C(=O)N3CCN(C)CC3)cc2F)C2CCCCC2)cn1 [Compound 224],< 10
4,CCC(=O)N[C@@H](C(=O)N1CCN(C)CC1)[C@@H](CC)c1ccc(NC(=O)[C@@H](NC(=O)C(F)(F)c2ccc(OC)nc2)C2CCCCCC2)cc1 [Compound 227],10 to 100
5,CCC(=O)N[C@@H](C(=O)N1CCN(C)CC1)[C@@H](C)c1ccc(NC(=O)[C@@H](NC(=O)c2ccnn2CC)C2CCCCCC2)c(F)c1 [Compound 228],< 10
6,CCC(=O)N[C@@H](C(=O)N1CCN(C)CC1)[C@@H](C)c1ccc(NC(=O)[C@@H](NC(=O)c2ccnn2CC)C2CCCCC2)c(F)c1 [Compound 229],10 to 100
7,CCC(=O)N[C@@H](C(=O)N1CCN(C)CC1)[C@@H](C)c1ccc(NC(=O)[C@@H](NC(=O)C(F)(F)c2cccc(C#N)c2)C2CCCCC2)c(F)c1 [Compound 230],< 10
8,CCC(=O)N[C@@H](C(=O)N1CCN(C)CC1)[C@@H](C)c1ccc(NC(=O)[C@@H](NC(=O)c2ccnn2C(C)C)C2CCCCCC2)cc1 [Compound 232],10 to 100
9,CCC(=O)N[C@@H](C(=O)N1CCN(C)CC1)[C@@H](C)c1ccc(NC(=O)[C@@H](NC(=O)c2ccnn2CC)[C@H]2CC[C@H](C)CC2)c(F)c1 [Compound 234],10 to 100
10,CCC(=O)N[C@H](Cc1ccc(NC(=O)[C@@H](NC(=O)c2ccnn2CC)C2CCCCCC2)c(F)c1)C(=O)N1CCN(C)CC1 [Compound 235],10 to 100
11,CCC(=O)N[C@H](Cc1ccc(NC(=O)[C@@H](NC(=O)c2conc2CC)C2CCCCCC2)c(F)c1)C(=O)N1CCN(C)CC1 [Compound 236],10 to 100
12,CCCn1nccc1C(=O)N[C@H](C(=O)Nc1ccc(C[C@@H](NC(=O)CC)C(=O)N2CCN(C)CC2)cc1F)C1CCCCC1 [Compound 237],10 to 100
13,CCC(=O)N[C@H](Cc1ccc(NC(=O)[C@@H](NC(=O)c2ccnn2C(C)C)C2CCCCCC2)c(F)c1)C(=O)N1CCN(C)CC1 [Compound 238],10 to 100
14,CCC(=O)N[C@H](Cc1ccc(NC(=O)[C@@H](NC(=O)c2coc3cc(OC)ccc23)C2CCCCC2)c(F)c1)C(=O)N1CCN(C)CC1 [Compound 239],10 to 100
15,CCC(=O)N[C@@H](C(=O)N1CCN(C)CC1)[C@@H](C)c1ccc(NC(=O)[C@@H](NC(=O)c2ccnn2CC)C2CCC(F)(F)CC2)c(F)c1 [Compound 240],10 to 100
16,CCC(=O)N[C@@H](C(=O)N1CCN(C)CC1)[C@@H](C)c1ccc(NC(=O)[C@@H](NC(=O)c2ccnn2C(C)C)C2CCCCCC2)c(F)c1 [Compound 241],< 10
17,CCC(=O)N[C@@H](C(=O)N1CCN(C)CC1)[C@@H](C)c1ccc(NC(=O)[C@@H](NC(=O)C(F)(F)c2cccc(OC)c2)C2CCCCC2)c(F)c1 [Compound 243],10 to 100
18,CCC(=O)N[C@@H](C(=O)N1CCN(C)CC1)[C@@H](C)c1ccc(NC(=O)[C@@H](NC(=O)C(F)(F)c2ccc3c(c2)OCO3)C2CCCCC2)c(F)c1 [Compound 244],10 to 100
19,CCC(=O)N[C@@H](C(=O)N1CCN(C)CC1)[C@@H](C)c1ccc(NC(=O)[C@@H](NC(=O)C(F)(F)c2ccc3[nH]ncc3c2)C2CCCCC2)c(F)c1 [Compound 245],10 to 100
20,CCC(=O)N[C@@H](C(=O)N1CCN(C)CC1)[C@@H](C)c1ccc(NC(=O)[C@@H](NC(=O)C(F)(F)c2cncc(OC)c2)C2CCCCC2)c(F)c1 [Compound 246],10 to 100
21,CCC(=O)N[C@@H](C(=O)N1CCN(C)CC1)[C@@H](C)c1ccc(NC(=O)[C@@H](NC(=O)c2coc3ccncc23)C2CCCCC2)c(F)c1 [Compound 247],10 to 100
22,CCC(=O)N[C@@H](C(=O)N1CCN(C)CC1)[C@@H](C)c1ccc(NC(=O)[C@@H](NC(=O)c2csc3ccccc23)C2CCCCC2)c(F)c1 [Compound 248],10 to 100
23,CCC(=O)N[C@@H](C(=O)N1CCN(C)CC1)[C@@H](C)c1ccc(NC(=O)[C@@H](NC(=O)c2csc3cnccc23)C2CCCCC2)c(F)c1 [Compound 249],10 to 100

row,SMILES,IC50 [nM]
1,CCC(=O)N[C@@H](C(=O)N1CCN(C)CC1)[C@@H](C)c1ccc(NC(=O)[C@@H](NC(=O)c2csc3ncccc23)C2CCCCC2)c(F)c1 [Compound 250],10 to 100
2,CCC(=O)N[C@@H](C(=O)N1CCN(C)CC1)[C@@H](C)c1ccc(NC(=O)[C@@H](NC(=O)C(F)(F)c2cccc(NS(C)(=O)=O)c2)C2CCCCC2)c(F)c1 [Compound 251],10 to 100
3,CCC(=O)N[C@@H](C(=O)N1CCN(C)CC1)[C@@H](C)c1ccc(NC(=O)[C@@H](NC(=O)C(F)(F)C2CCCCC2)C2CCCCC2)c(F)c1 [Compound 252],10 to 100
4,CCC(=O)N[C@@H](C(=O)N1CCN(C)CC1)[C@@H](C)c1ccc(NC(=O)[C@@H](NC(=O)c2ccnn2C(C)C)[C@H]2CC[C@H](C)CC2)c(F)c1 [Compound 253],< 10
5,CCC(=O)N[C@@H](C(=O)N1CCN(C)CC1)[C@@H](C)c1ccc(NC(=O)[C@@H](NC(=O)c2cccn2CC)C2CCCCC2)c(F)c1 [Compound 254],10 to 100
6,CCC(=O)N[C@@H](C(=O)N1CCN(C)CC1)[C@@H](C)c1ccc(NC(=O)[C@@H](NC(=O)c2coc3cc(OC)ccc23)C2CCCCC2)c(F)c1 [Compound 255],10 to 100
7,CCC(=O)N[C@@H](C(=O)N1CCN(C)CC1)[C@@H](C)c1ccc(NC(=O)[C@@H](NC(=O)c2ccnn2C(C)C)C2CCCCC2)c(F)c1 [Compound 256],10 to 100
8,CCC(=O)N[C@@H](C(=O)N1CCN(C)CC1)[C@@H](C)c1ccc(NC(=O)[C@@H](NC(=O)c2conc2CC)C2CCCCCC2)c(F)c1 [Compound 257],< 10
9,CCC(=O)N[C@@H](C(=O)N1CCN(C)CC1)[C@@H](C)c1ccc(NC(=O)[C@@H](NC(=O)c2coc3cc(OC)ccc23)C2CCCCCC2)c(F)c1 [Compound 258],< 10
10,CCC(=O)N[C@@H](C(=O)N1CCN(C)CC1)[C@@H](C)c1ccc(NC(=O)[C@@H](NC(=O)c2csc3ccccc23)C2CCCCCC2)c(F)c1 [Compound 259],< 10
11,CCC(=O)N[C@@H](C(=O)N1CCN(C)CC1)[C@@H](C)c1ccc(NC(=O)[C@@H](NC(=O)C(F)(F)c2cccc(C#N)c2)C2CCCCCC2)c(F)c1 [Compound 260],< 10
12,CCC(=O)N[C@@H](C(=O)N1CCN(C)CC1)[C@@H](C)c1ccc(NC(=O)[C@@H](NC(=O)C(F)(F)c2cncc(C#N)c2)C2CCCCCC2)c(F)c1 [Compound 261],< 10
13,CCC(=O)N[C@@H](C(=O)N1CCN(C)CC1)[C@@H](C)c1ccc(NC(=O)[C@@H](NC(=O)C(F)(F)c2cncc(OC)c2)C2CCCCCC2)c(F)c1 [Compound 262],10 to 100
14,CCC(=O)N[C@@H](C(=O)N1CCN(C)CC1)[C@@H](C)c1ccc(NC(=O)[C@@H](NC(=O)C(F)(F)c2cccc(C#N)c2)C2CCC(F)(F)CC2)c(F)c1 [Compound 263],< 10
15,CCC(=O)N[C@@H](C(=O)N1CCN(C)CC1)[C@@H](C)c1ccc(NC(=O)[C@@H](NC(=O)c2conc2CC)[C@H]2CC[C@H](C)CC2)c(F)c1 [Compound 264],10 to 100
16,CCC(=O)N[C@@H](C(=O)N1CCN(C)CC1)[C@@H](C)c1ccc(NC(=O)[C@@H](NC(=O)C(F)(F)c2csc(C)c2)C2CCCCCC2)c(F)c1 [Compound 265],< 10
17,CCC(=O)N[C@@H](C(=O)N1CCN(C)CC1)[C@@H](C)c1ccc(NC(=O)[C@@H](NC(=O)c2coc3c2COC3)C2CCCCCC2)c(F)c1 [Compound 266],< 10
18,CCC(=O)N[C@@H](C(=O)N1CCN(C)CC1)[C@@H](C)c1ccc(NC(=O)[C@@H](NC(=O)C(F)(F)c2cnn(CC)c2)C2CCCCCC2)c(F)c1 [Compound 267],< 10
19,CCC(=O)N[C@@H](C(=O)N1CCN(C)CC1)[C@@H](C)c1ccc(NC(=O)[C@@H](NC(=O)c2conc2C(C)C)C2CCCCCC2)c(F)c1 [Compound 268],< 10
20,CCC(=O)N[C@@H](C(=O)N1CCN(C)CC1)[C@@H](C)c1ccc(NC(=O)[C@@H](NC(=O)c2conc2C2CC2)C2CCCCCC2)c(F)c1 [Compound 269],< 10
21,CCC(=O)N[C@@H](C(=O)N1CCN(C)CC1)[C@@H](C)c1ccc(NC(=O)[C@@H](NC(=O)c2nonc2CC)C2CCCCCC2)c(F)c1 [Compound 270],< 10
22,CCC(=O)N[C@@H](C(=O)N1CCN(C)CC1)[C@@H](C)c1ccc(NC(=O)[C@@H](NC(=O)c2ccnn2CC2CC2)C2CCCCCC2)c(F)c1 [Compound 271],< 10
